The results in this text go back to patent publication US9096607B2, “Tumor necrosis factor inhibitors” (THE TRUSTEES OF THE UNIVERSITY OF PENNSYLVANIA, priority 2005, dated 2015).

In the experiment the test system is L929 cells. Description: Inhibition of TNF-α mediated cytolysis of L929 cells (Alamar Blue). The format is cell-based, murine. Particulars: TNF-α 100 pg/mL, actinomycin D 1 μM. From the text:
L929 cultured murine fibroblasts cells were obtained from American Type Culture Collection (Manassas, Va.). Tissue culture reagents were from Invitrogen or Sigma-Aldrich. TNF-α and Actinomycin D were from Sigma-Aldrich. Alamar Blue reagents (Cell Titer Blue™) were from Promega. The test compounds I-1 through I-16, II-1 through II-8, and III-1 through III-3 were obtained commercially or can be prepared as described above. The test compounds were individually dissolved in dimethylsulfoxide (DMSO). The test compounds were maintained at 4° C. when not in use. Other reagents were high-purity (ACS-grade, HPLC-grade, MilliQ water, or similar).
Stock L929 cells were grown on tissue culture plastic in complete DMEM (Dulbecco's Modified Eagles Medium) supplemented with 10% FBS (Fetal Bovine Serum), NEAA (non-essential amino acids), and glutamine. L929 cells were plated using the same medium on 96-well tissue culture plates at high density (i.e., ˜4×10^4 cells/well, or similar) before use.
Approximately 20 h after plating, the L929 cells on 96-well plates were re-fed with fresh medium containing one of the test compounds in a concentration selected from 100 μM, 50 μM, 25 μM as a “pre-treatment.” Approximately 30-60 min later, samples were treated with an additional amount of test compound (in the same amount and at the same concentration as the pre-treatment) prepared in medium containing TNF-α (200 pg/mL), and actinomycin D (2 μM). The final concentration of TNF-α in assays was 100 pg/mL. The final concentration of actinomycin D in assays was 1 μM. The plates were incubated for an additional 22-23 h, the Alamar Blue assay reagents were added and metabolic cell viability was determined from reduction of a fluorogenic Alamar Blue derivative.
The temperature was maintained at 37° C. with 5% CO2 and humidified. The metabolic viability was measured 1-2 h after addition of assay reagents/Alamar Blue derivative using TECAN SaFire fluorescence plate reader (Tecan Group Ltd., Maennedorf, Switzerland).
Inhibition of TNF-α induced cytolysis by a test compound (X) at a given concentration (y) was calculated as follows: […]

`CC(=O)Oc1ccc(C(C)(c2ccc(OC(C)=O)cc2)c2ccc(OC(C)=O)cc2)cc1` [Compound I-9, 1,1,1-Tris-(4-acetoxyphenyl)ethane]: the “% Inhibition at: 25 μM” value (25 μM compound) is 37.2%. The “% Inhibition at: 50 μM” value (50 μM compound) is 65.2%. Besides, the “% Inhibition at: 100μM” value (100 μM compound) came out at 50.9%.
